In patent publication US20110064669A1, “USE OF GALANIN IN A METHOD OF TREATING NEURODEGENERATIVE DISEASES OR CONDITIONS” (HOWARD FLOREY INSTITUTE OF EXPERIMENTAL PHYSIOLOGY AND …, priority 2007, published 2011):
“Also recorded” adds a separate entry of the source. No end group written: not given here.

Assays:
[1] = tested on: post-mitotic OC (primary rat OPC matured by PDGF withdrawal); assay: Oligodendrocyte survival assay (calcein / ethidium homodimer live-dead count); format: cell-based
Experimental: Whether or not galanin itself is a survival factor for oligodendrocytes in vitro was determined. Primary rat OPC in culture were matured for 48 hours by PDGF withdrawal in the presence of insulin, passaged into poly-1-lysine coated 24 well-plates at a density of 200 cells/well in Sato medium alone or Sato medium supplemented with various concentrations of recombinant rat galanin (Peninsula Biosciences).
Twenty wells/condition were counted in each survival assay and results were verified in four independent experiments using separate batches of primary cells. All counts were performed by an investigator blinded to the experimental condition.

EAE = details: cited from earlier work
OC = assay: Galanin immunocytochemistry of OC cultured in insulin +/- LIF; format: cell-based, rat; details: LIF-treated versus untreated OC, 48 hours
Experimental: (§1) Translation of regulated cytokine and neuropeptide mRNA species into peptides/proteins was confirmed. Mature oligodendrocytes (as above) were plated in 10 cm dishes in SATO plus insulin and added LIF (100 ng/ml) to half the dishes for 48 hours. […] LIF-dependent galanin production in concentrated media from the OC cell line CG4 (FIG. 11) was confirmed. […] All Western blots were performed in triplicate from independent experiments. The LIF-dependent induction of a secretory phenotype in OC was confirmed by galanin immunocytochemistry of OC cultured in insulin +/− LIF for 48 hours (FIG. 13).

[2] = tested on: cultured primary rat astrocytes or an n-mye immortalized astrocytic cell line; assay: Galanin production in response to LIF in astrocytes; format: cell-based
[3] = tested on: cultured primary oligodendrocytes; assay: Affymetrix gene chip analysis of LIF-induced mRNA in cultured primary oligodendrocytes; format: cell-based, rat; details: 8 hours of LIF exposure, versus NT3, insulin or Sato only
Experimental: In order to assess mRNA induction promoted by LIF signaling in oligodendrocytes, an Affymetrix array analysis was conducted of cultured primary oligodendrocytes. A2B5 positive, O1 negative oligodendrocyte progenitor cells were isolated by sequential immunopanning from P6 rat optic nerves. After expansion in culture (2 passages, 11 days) in Sato medium in the presence of insulin, platelet-derived growth factor (PDGF) and neurotrophin-3 (NT3) (no CNTF or LIF), the cells were matured by 48 hours of PDGF withdrawal. The NT3 was also withdrawn for this time-period but insulin was maintained. In order to determine gene expression profiles induced by various cytokines, the matured cells were then exposed to one of four conditions for 8 hours: Sato alone, Sato plus insulin, Sato plus LIF, Sato plus NT3. Subsequently, the cells were harvested, mRNA isolated and processed for Affymetrix gene chip hybridization (Rat 230 2.0). The experiments were conducted as independent triplicates. […] The 965 genes identified were subjected to cluster analysis. Distinct clusters of genes were regulated by insulin and LIF (FIG. 9) but not NT-3.

[4] = tested on: oligodendrocyte progenitors or mature oligodendrocytes; assay: Real-time PCR confirmation of LIF-regulated genes in oligodendrocyte progenitors and mature oligodendrocytes; format: cell-based, rat; details: LIF for 5 or 24 hours
Experimental: For each of these six regulated genes, independent confirmation was conducted by real-time PCR. Either dividing oligodendrocyte progenitors or mature oligodendrocytes (as above) were exposed to LIF for either 5 or 24 hours, and measured gene induction against baseline (independent baseline cultures for each comparison). […] FIG. 10 illustrates typical results for secretogranin 2 and galanin.

cuprizone demyelination = details: exogenous LIF, wild-type litter mates; cited from earlier work
mature oligodendrocytes = assay: Western blot of galanin in concentrated media of mature oligodendrocytes; format: cell-based, rat; details: LIF 100 ng/ml, 48 hours, SATO plus insulin
Experimental: as §1

Substance | OC survival in vitro ([1]; 1 nM galanin in Sato medium, versus Sato alone (nil)) | OC survival, galanin plus LIF versus galanin alone (synergy) ([1]; Sato medium) | OC survival in vitro ([1]; higher galanin concentrations (other than 1 nM), versus baseline (nil)) | reduction in density of oligodendrocytes within the spinal cord in established EAE (EAE; MBP-lacZ mice, LIF administration) | EAE severity (EAE; recombinant LIF administration) | galanin staining of OC (OC) | induction of galanin production [2] | regulation of genes (secretogranin II, cytokines/neuropeptides incl. galanin) on gene chip [3] | gene induction against baseline at the RNA level (six genes incl. secretogranin 2 and galanin) [4] | severity of demyelination (cuprizone demyelination) | galanin production in concentrated media (mature oligodendrocytes)
galanin (GWTLNSAGYLLGPHAIDNHRSFSDKHGLT; ends and bridges not checked; UniProt P10683 33-61, looked up) [29 amino acid neuropeptide; recombinant rat galanin (Peninsula Biosciences) used in the survival assay] | highly significant survival effect; also recorded: increased | not synergistic with LIF | abolished; also recorded: No other galanin concentration is significantly different from baseline | – | – | – | – | – | – | – | –
leukemia inhibitory factor [LIF] | – | – | – | fully rescued this phenotype | reduces EAE severity | intense polar galanin staining | not observed | significantly regulated | confirmed to be regulated | reduce the severity of demyelination | Induction of galanin production was observed
